These results are taken from patent publication EP1992228A1, “Insecticidal substituted thiourea derivatives” (Bayer CropScience AG, priority 2007, dated 2008).

For data set [1], the system named is Myzus persicae. Nature of the data set: Myzus persicae-test (MYZUPE, spray application). The data set is classed as in vivo. The note with it: spray on Chinese cabbage leaf-disks, green peach aphid, all instars; for mortality at 500 g/ha: application rate of 500 g/ha; for mortality at 100 g/ha: application rate of 100 g/ha. How it is done:
Myzus persicae-test (MYZUPE, spray application) [table] [table] To produce a suitable preparation of active compound, 1 part by weight of active compound is mixed with the stated amount of solvent and emulsifier, and the concentrate is diluted with emulsifier-containing water to the desired concentration. Chinese cabbage (Brassica pekinensis) leaf-disks infected with all instars of the green peach aphid (Myzus persicae), are sprayed with a preparation of the active ingredient at the desired concentration. After the specified period of time, mortality in % is determined. 100 % means that all aphids have been killed; 0 % means that none of the […] have been killed.

Data set [2] relates to Tetranychus urticae. Put plainly: Tetranychus-test, OP-resistant (TETRUR, spray application). The format is in vivo. To be noted: application rate of 100 g/ha, spray on French bean, two spotted spidermite, all stages. How it is done:
Tetranychus-test, OP-resistant (TETRUR, spray application)
(§1) To produce a suitable preparation of active compound, 1 part by weight of active compound is mixed with the stated amount of solvent and emulsifier, and the concentrate is diluted with emulsifier-containing water to the desired concentration.
French bean (Phaseolus vulgaris) which are heavily infested with all stages of the two spotted spidermite (Tetranychus urticae), are sprayed with a preparation of the active ingredient at the desired concentration.
After the specified period of time, mortality in % is determined. 100 % means that all spider mites have been killed; 0 % means that none of the […] have been killed.

The test system of data set [3] is Boophilus microplus. Nature of the data set: Boophilus microplus-test (injektion). The data set is classed as in vivo. To be noted: application rate of 20 µg/animal; injected in the abdomen. As for the experimental part:
Boophilus microplus-test (injektion)
as §1
The solution of the active compound is injected in the abdomen (Boophilus microplus); the animals are transferred into a cup and stayed in a rooming with an air condition.
After the specified period of time, the efficiany mortality in % is determined. 100 % means that no tick has lay fertile eggs.

Data set [4] can be described thus: logP (HCOOH) determination. The data set is classed as physicochemical.
Data set [5] concerns Meloidogyne incognita. Put plainly: Meloidogyne-test, OP resistant (MELGIN spray application). The format is in vivo. To be noted: application rate of 20 ppm, sand with egg/larval suspension and lettuce seeds, read-out: activity (nematicidal efficacy in % with reference to gall formation). How it is done:
Meloidogyne-test, OP resistant (MELGIN spray application)
as §1
Containers are filled with sand, active compound solution, Meloidogyne incognita egg/larval suspension and lettuce seeds. The lettuce seeds germinate and the plantlets develop. The galls develop on the roots.
After the desired time, the nematicidal efficacy is determined in % with reference to gall formation. 100 % means that no galls were found; 0 % means that the number of galls on the treated plants corresponds to that of the untreated control.

As for `C[C@H](NC(=S)NCCO)c1ccc(F)cc1` [compound 8], the mortality (commonly the percentage killed) at 500 g/ha in data set [1] was at least 80%.
On to `C[C@H](NC(=S)NCCO)c1ccccc1F` [compound 6], for which the mortality at 100 g/ha in data set [1] and in data set [2] was at least 80% throughout. The “efficiency (100 % means that no tick has lay fertile eggs)” value in data set [3] is recorded as at least 80%.
In data set [1], `CC(NC(=S)NCCO)c1cccc(F)c1` (centres unmarked) [compound 3] returned a mortality at 100 g/ha of at least 80%. Moreover, the “efficiency (100 % means that no tick has lay fertile eggs)” value in data set [3] is reported as at least 80%.
With `C[C@H](NC(=S)NCCO)c1ccccc1F` [EXAMPLE 2], in data set [4], the chromatographic logP (commonly lipophilicity estimated from chromatographic retention) stood at 1.5.
Regarding `CC[C@H](NC(=S)NCCO)c1ccccc1` [compound 13], the mortality at 500 g/ha in data set [1] is at least 80%.
`C[C@H](NC(=S)NCCO)c1ccccc1` [compound 5] showed a mortality at 500 g/ha in data set [1] of at least 80%.
Compound `C[C@H](NC(=S)NCCO)c1ccc(F)cc1` [EXAMPLE 1] returned a chromatographic logP in data set [4] of 1.52.
Regarding `C[C@H](NC(=S)NCCO)c1ccc(Cl)cc1` [Compound No. 158], in data set [1], the mortality at 500 g/ha is at least 80%. The same compound yielded a mortality at 100 g/ha in data set [2] of at least 80%. Moreover, in data set [5], the inhibition at 20 ppm is at least 80%. Besides, the “efficiency (100 % means that no tick has lay fertile eggs)” value in data set [3] is at least 80%.
